In patent EP2196204A1 (priority 2007, dated 2009):

Tested on: DU-145
Type: cell-based, human

## CC(=O)O[C@H]1C(=O)[C@@]2(C)[C@H]([C@H](OC(=O)c3ccccc3)[C@]3(O)C[C@H](OC(=O)[C@H](O)[C@@H](NC(=O)c4ccccc4)c4ccccc4)C(C)=C1C3(C)C)[C@]1(OC(C)=O)CO[C@@H]1C[C@@H]2O [Taxol]
  Cell survival rate: 63.88%
